Test [1] is described as follows: Affinity biosensor binding with LPS. The source says: Immobilization of lipid A and CpG DNA: Using Optically-Based Affinity Biosensors technology, Lipid A, the biologic active centres of LPS, and CpG DNA were respectively, immobilized on the reacting surfaces of cuvettes in an IAsys plus affinity biosensor according to the manufacturer's instructions of IAsys Affinity Sensor. The end of hydrophobic side chain of lipid A was immobilized on cuvette with hydrophobic surface, and the phosphate group (active group of lipid A) at the other end was floating and exposing to the outside, which act as target spot of binding with active constituents for disease treatment in traditional Chinese medicine. The active constituents in solution were binded to lipid A through electrostatic interaction. Biotinylated CpG DNA was immobilized on the surface of a biotin cuvette by linking to avidin, which had been coated on the surface of a biotin cuvette, and then the unlabeled group of CpG DNA was floating and exposing to the outside, which act as target spot of binding with active constituents for disease treatment in traditional Chinese medicine. The active constituents in solution were binded to CpG DNA through the electrostatic interaction and embodiment.
Detection of the aqueous herbal extract: The crude drugs of 114 traditional Chinese herbs were pulverized. 1 g of each powder was added with 10 ml distilled water, boiled at 100° C. for 1.5 h, centrifuged at 4000 rpm for 20 min, filtrated and then collected the supernatant. 5 μl of aqueous herbal extracts of each herb were used to detect their binding with lipid A or CpG DNA. […]
9.1 Methods: KB was separately diluted with PBS to make solutions of 0.25, 0.5, 1, 2 and 4 μM; 5 μl of each solution was separately loaded; binding reaction of KB of various concentration with LPS and CpG DNA was assayed according to the methods in embodiment 1. The dissociation equilibrium constant (KD) of KB with LPS and CpG DNA was calculated using the IAsys FASTfit software. […]

Test [2] relates to mice challenged by heat-killed Escherichia coli. As to the kind of experiment: LPS and TNF-α levels in blood of mice challenged by heat-killed E. coli. The test is classed as in vivo, Kunming mice. The following applies: for LPS level in mice blood / TNF-α level in mice blood: 40 mg/kg 10 min after heat-killed E. coli 1.1×10^10 CFU/Kg, various time points, p<0.05 or p<0.01 vs control. How it is done:
8.1 Methods: Supernatant of heat-killed E. coli was prepared according to 2.3.3 items of embodiment 2; absorbance values of the supernatant were assayed at 600 nm (OD600 value 1.0≈1.0×10^10 CFU/ml); a total of 84 Kunming mice, half male and half female, were divided into three groups randomly: heat-killed E. coli control group, KA (40 mg/kg) plus heat-killed E. coli group and KB (40 mg/kg) plus heat-killed E. coli group; each group has 28 mice; after animals were weighed, heat-killed E. coli control group was injected with heat-killed E. coli(1.1×10^10 CFU/Kg); the other two groups were respectively injected with KA or KB (40 mg/kg) at 10 min after injection of heat-killed E. coli(1.1×10^10 CFU/Kg); the total injection of each animal was 200 μl per 20 g body weight; orbital venous blood of mice was collected at time point of 0, 2, 4, 8, 12, 24, 48 and 72 h after injection; LPS level was assayed by kinetic turbidimetric limulus test, and TNF-α was assayed by ELISA.
28.1 Methods: Kunming mice were randomly divided into two groups, and there were 56 mice in each group; heat-killed E. coli was diluted to make 1.0×10^9 CFU/ml suspension, and KB was dissolved to 6 mg/ml with sterile saline; caudal vein injection was adopted; medium group was injected with heat-killed Escherichia coli (0.2 ml per 20 g body weight) and sterile saline (0.2 ml per 20 g body weight); KB treatment groups were injected with heat-killed E. coli suspension S (0.2 ml per 20 g body weight) and KB (0.2 ml per 20 g body weight). Orbital venous blood of mice in medium group and KB treatment group was collected at time point of 0, 4, 8, 12, 24, 48 and 72 h after injection, the specific methods are: mice were killed by cervical dislocation, and immersed in 75% ethanol for skin degerming; the eye of mouse was removed, and blood was collected into a 1.5 ml EP tube; 10 μl blood were added into 190 μl nonpyrogenic water; solution was kept standing for 5-10 min for neutral sedimentation, and centrifuged at 1000 rpm for 10 min; the supernatant was transferred into a new centrifuge tube and stored at −20° C. for further detection; the rest was keep standing until aggregation and serum precipitation, then centrifuged at 3000 rpm for 10 min; the supernatant was transferred into a new centrifuge tube and stored at −20° C. for further detection;
(1) Detection of LPS levels in plasma: 10 μl plasma sample was dissolved in 190 μl sterile saline and mixed. Detection of LPS levels was performed according to the operating procedure of EDS-99 Bacterial Endotoxin Detecting system. Result was expressed by means of mean±standard deviation.
(2) Detection of serum cytokine levels: Because of the small blood volume of mouse, serum was diluted 2 times for detection. Detection of the TNF-α concentration was performed according to the manufacturer's instructions of ELISA kit. Result was expressed by means of mean±standard deviation.

Like-named read-outs stand apart in the source and are kept apart here.

In the case of `NCCCN(CCCCNCCCNC(=O)CCc1ccc(O)c(O)c1)C(=O)CCc1ccc(O)c(O)c1` [KB, Kukoamine B], the Kd in test [1] (KB 0.25-4 μM, IAsys FASTfit, read-out: dissociation equilibrium constant (KD) with LPS) was 1240 nM. Moreover, the Kd in test [1] (with LPS, read-out: dissociation equilibrium constant (KD = kass/kdiss)) worked out at 1240 nM. In test [2], the “LPS level in mice blood” value is on record as “significantly decreased” and the “TNF-α level in mice blood” value was “significantly decreased”. In addition, in test [2] (sublethal heat-killed E. coli, KB 6 mg/ml, 0.2 ml per 20 g, 4, 8, 12, 24 and 48 h, p<0.05 or p<0.01), the “LPS levels in mice plasma vs heat-killed E. coli control group” value was “significantly lower”. The “TNF-α levels in mice serum vs heat-killed E. coli control group” value in test [2] (sublethal heat-killed E. coli, KB 6 mg/ml, 0.2 ml per 20 g, 4, 8, 12 and 24 h, p<0.01) is “significantly lower”.

Consider polymyxin B [PMB, reference compound], for which the “affinity with LPS” value in test [1] (4 μM solution, 5 μl loaded) is on record as “high affinity”.

For `O=C(CCc1ccc(O)c(O)c1)NCCCNCCCCNCCCNC(=O)CCc1ccc(O)c(O)c1` [KA, Kukoamine A], in test [2], the “LPS level in mice blood” value was “significantly decreased” and the “TNF-α level in mice blood” value is given as “significantly decreased”.

The values are drawn from US10039729B2, “Use of kukoamine A and kukoamine B” (Tianjin Chase Sun Pharmaceutical Co., Ltd., priority 2010, dated 2018).
